Data taken from patent US11753408B2, “Compounds and method for blocking transmission of malarial parasite” (The United States of America, as represented by the …, priority 2016, dated 2023).

Experiments:
[1] = test system: Stage III-V gametocytes (blood stage P. falciparum parasites); assay: In vitro drug activity on gametocytes (AlamarBlue viability assay); format: cell-based, Plasmodium falciparum; conditions: read-out: Gametocyte EC50
Procedure, shortened: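 P. falciparum 3D7 stage III–V gametocytes (also HB3, Dd2), enriched by 50 mM N-acetylglucosamine and Percoll gradient, seeded at 20,000/well with compound for 72 h at 37° C, 5% CO2. AlamarBlue then added for 24 h; viability read as fluorescence (Ex 525, Em 598 nm).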

[2] = Microsomal stability (rat); format: in vitro ADME; conditions: rat microsomes
[3] = test system: Asexual parasites of P. falciparum strain 3D7; assay: In vitro drug activity on asexual parasites (SYBR Green assay); format: cell-based, Plasmodium falciparum
Procedure, shortened: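 3D7 parasites at 0.5% parasitemia and 2% hematocrit were exposed to drugs (DMSO ≤0.5%) for 72 h under standard culture conditions, in duplicate. After freeze-thaw lysis, SYBR Green I lysis buffer was added for 30 min at room temperature, and fluorescence was read at 490/520 nm.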

mTOR = mTOR (Homo sapiens, UniProt P42345); assay: mTOR activity (no method described); format: biochemical
Solubility at pH 7.4 = format: physicochemical
PAMPA permeability = format: in vitro ADME

Compound | Microsomal Stability (rat) T1/2 [2] | EC50 [3] | mTOR (mTOR) | Sol @ pH 7.4 (Solubility at pH 7.4) | PAMPA Permeability (PAMPA permeability) | EC50 [1]
Cc1cc(-c2ccc3ncc4ccc(=O)n(-c5ccc(C(=O)N6CCOCC6)cc5)c4c3c2)ccc1Cl [Compound 144] | 4.1 min | 368 nM | 2.083 µM | <1.0 ug/mL | 1470 ×10⁻⁶ cm/s | 1760 nM
CN(C)C(=O)c1cc(-c2ccc3ncc4ccc(=O)n(-c5ccc(C(=O)N6CCOCC6)cc5)c4c3c2)ccc1Cl [Compound 146] | 9.6 min | 536 nM | 5.732 µM | 63 ug/mL | 98.3 ×10⁻⁶ cm/s | 1810 nM
O=C(c1ccc(-n2c(=O)ccc3cnc4ccc(-c5ccc(Cl)c(C(=O)N6CCOCC6)c5)cc4c32)cc1)N1CCOCC1 [Compound 147] | 3.1 min | 4810 nM | 21.22 µM | >90.0 ug/mL | 109 ×10⁻⁶ cm/s | 18300 nM
O=C(NC1CCCCC1)c1ccc(-n2c(=O)ccc3cnc4ccc(-c5ccc(Cl)cc5)cc4c32)cc1 [Compound 155] | 10.7 min | 1240 nM | 27.97 µM | <1.0 ug/mL | < 1 ×10⁻⁶ cm/s | 3110 nM
O=C(NC1CCCC1)c1ccc(-n2c(=O)ccc3cnc4ccc(-c5ccc(Cl)cc5)cc4c32)cc1 [Compound 156] | 5.6 min | 687 nM | 67.63 µM | <1.0 ug/mL | < 1 ×10⁻⁶ cm/s | 1580 nM
O=C(NC1CCCCCC1)c1ccc(-n2c(=O)ccc3cnc4ccc(-c5ccc(Cl)cc5)cc4c32)cc1 [Compound 157] | 6.8 min | 3350 nM | 50 µM | <1.0 ug/mL | < 1 ×10⁻⁶ cm/s | 7430 nM
O=C(NC1CC1c1ccccc1)c1ccc(-n2c(=O)ccc3cnc4ccc(-c5ccc(Cl)cc5)cc4c32)cc1 (stereo not drawn) [Compound 158] | 18.8 min | 1560 nM | 7.899 µM | <1.0 ug/mL | < 2.4 ×10⁻⁶ cm/s | 3560 nM
CN(C)Cc1ccc(-c2ccc3ncc4ccc(=O)n(-c5ccc(C(=O)N6CC7CN(C)CC7C6)cc5)c4c3c2)cc1 (stereo not drawn) [Compound 161] | >30.0 min | 512 nM | 47.05 µM | >82.0 ug/mL | 5.4 ×10⁻⁶ cm/s | 1540 nM
CN(C)Cc1ccc(-c2ccc3ncc4ccc(=O)n(-c5ccc(C(=O)N6CCN(CCO)CC6)cc5)c4c3c2)cc1 [Compound 162] | >30.0 min | 368 nM | 32.08 µM | >83.0 ug/mL | < 1 ×10⁻⁶ cm/s | 895 nM
CN(C)Cc1ccc(-c2ccc3ncc4ccc(=O)n(-c5ccc(C(=O)N6CCN(C)CC6)cc5)c4c3c2)cc1 [Compound 164] | >30.0 min | 594 nM | 40.42 µM | >79.0 ug/mL | 238 ×10⁻⁶ cm/s | 809 nM
CN(C)Cc1ccc(-c2ccc3ncc4ccc(=O)n(-c5ccc(C(=O)N6CC7CC6CN7C)cc5)c4c3c2)cc1 (stereo not drawn) [Compound 165] | >30.0 min | 934 nM | 50 µM | >80.0 ug/mL | 1.8 ×10⁻⁶ cm/s | 4090 nM
Cc1cc(=O)n(-c2ccc(C(=O)NC3CC3)cc2)c2c1cnc1ccc(-c3ccc(Cl)cc3)cc12 [Compound 179] | 19.4 min | 451 nM | 100 µM | <1 ug/mL | < 1 ×10⁻⁶ cm/s | 1700 nM

Stronger by EC50 [3], values ahead:

Microsomal Stability (rat) T1/2 [2] | EC50 [3] | mTOR (mTOR) | Sol @ pH 7.4 (Solubility at pH 7.4) | PAMPA Permeability (PAMPA permeability) | Compound | EC50 [1]
1.6 min | 63.1 nM | 0.6716 µM | <1.0 ug/mL | 1420 ×10⁻⁶ cm/s | CN(C(=O)c1ccc(-n2c(=O)ccc3cnc4ccc(-c5ccc(Cl)cc5)cc4c32)cc1)C1CC1 [Compound 143] | 242 nM
4.9 min | 60.6 nM | 1.214 µM | <1.0 ug/mL | 363 ×10⁻⁶ cm/s | COc1cc(-c2ccc3ncc4ccc(=O)n(-c5ccc(C(=O)N6CCOCC6)cc5)c4c3c2)ccc1Cl [Compound 145] | 266 nM
9.4 min | 127 nM | 18.36 µM | <1.0 ug/mL | 57.9 ×10⁻⁶ cm/s | N#Cc1cc(-c2ccc3ncc4ccc(=O)n(-c5ccc(C(=O)N6CCOCC6)cc5)c4c3c2)ccc1Cl [Compound 153] | 52.9 nM
8 min | 160 nM | 0.7657 µM | <1.0 ug/mL | < 1 ×10⁻⁶ cm/s | O=C(NC1CCC1)c1ccc(-n2c(=O)ccc3cnc4ccc(-c5ccc(Cl)cc5)cc4c32)cc1 [Compound 154] | 102 nM
>30.0 min | 96.1 nM | 9.278 µM | >79.0 ug/mL | < 1 ×10⁻⁶ cm/s | CN(C)Cc1ccc(-c2ccc3ncc4ccc(=O)n(-c5ccc(C(=O)N(CCO)CCO)cc5)c4c3c2)cc1 [Compound 160] | 270 nM
>30.0 min | 93.9 nM | 6.497 µM | >72.0 ug/mL | 232 ×10⁻⁶ cm/s | CN(C)Cc1ccc(-c2ccc3ncc4ccc(=O)n(-c5ccc(C(=O)NC6CC6)cc5)c4c3c2)cc1 [Compound 163] | 246 nM
>30.0 min | 72.7 nM | 8.762 µM | >70.0 ug/mL | 427 ×10⁻⁶ cm/s | CN(C)Cc1ccc(-c2ccc3ncc4ccc(=O)n(-c5ccc(C(=O)N(C)C)cc5)c4c3c2)cc1 [Compound 166] | 179 nM
>30.0 min | 223 nM | 22.69 µM | >76.0 ug/mL | 1.5 ×10⁻⁶ cm/s | CN(C)Cc1ccc(-c2ccc3ncc4ccc(=O)n(-c5ccc(C(=O)N6CCNCC6)cc5)c4c3c2)cc1 [Compound 167] | 469 nM
13.3 min | 122 nM | 3.773 µM | 2.7 ug/mL | 591 ×10⁻⁶ cm/s | N#Cc1ccc(-c2ccc3ncc4ccc(=O)n(-c5ccc(C(=O)N6CCOCC6)cc5)c4c3c2)cc1 [Compound 170] | 168 nM
2.8 min | 47.5 nM | 0.1543 µM | >72.0 ug/mL | 31.3 ×10⁻⁶ cm/s | O=Cc1ccc(-c2ccc3ncc4ccc(=O)n(-c5ccc(C(=O)N6CCOCC6)cc5)c4c3c2)cn1 [Compound 171] | 240 nM
>30.0 min | 121 nM | 0.9678 µM | 2.3 ug/mL | 12.3 ×10⁻⁶ cm/s | O=C(NC1C2CNCC21)c1ccc(-n2c(=O)ccc3cnc4ccc(-c5ccc(Cl)cc5)cc4c32)cc1 (stereo not drawn) [Compound 172] | 203 nM
>30.00 min | 133 nM | 7.636 µM | >68.00 ug/mL | 49.9 ×10⁻⁶ cm/s | CNC(=O)c1ccc(-n2c(=O)ccc3cnc4ccc(-c5ccc(CN(C)C)cc5)cc4c32)cc1 [Compound 174] | 265 nM
